Assay results published in patent US4987129A, “Cephalosporin derivatives” (priority 1987, dated 1991).
Converted amounts (≈) assume the structure as drawn. Structures can show the parent of a compound that is named as a salt. Where two headings read alike, the source gives them in different places.

Experiments:
Format in all cases: cell-based
[1] = test system: Staphylococcus aureus Smith; experiment: minimum inhibitory concentration (MIC), standard method of Japan Society of Chemotherapy; conditions: Tables 2A, 2B
Method: (§1) The minimum inhibitory concentration (MIC) of the compounds obtained in the above Examples were measured according to the standard method of Japan Society of Chemotherapy.

[2] = test system: Citrobacter freundii GN7391; experiment: minimum inhibitory concentration (MIC)
Method: as §1

[3] = test system: Enterobacter cloacae 908RN; experiment: minimum inhibitory concentration (MIC)
Method: as §1

[4] = test system: Enterobacter cloacae GN7471; experiment: minimum inhibitory concentration (MIC)
Method: as §1

Escherichia coli GN5482 = experiment: minimum inhibitory concentration (MIC); conditions: Tables 2A, 2B
Method: as §1

Escherichia coli ML4704 = experiment: minimum inhibitory concentration (MIC)
Method: as §1

[5] = test system: Klebsiella pneumoniae 4at521; experiment: minimum inhibitory concentration (MIC); conditions: Tables 2A, 2B
Method: as §1

Proteus vulgris GN7919 = experiment: minimum inhibitory concentration (MIC)
Method: as §1

[6] = test system: Pseudomonas aeruginosa 4au542; experiment: minimum inhibitory concentration (MIC); conditions: Tables 2A, 2B
Method: as §1

[7] = test system: Pseudomonas aeruginosa 5D58-1; experiment: minimum inhibitory concentration (MIC); conditions: 5D581, Tables 2A, 2B
Method: as §1

[8] = test system: Pseudomonas aeruginosa GN10362; experiment: minimum inhibitory concentration (MIC); conditions: Tables 2A, 2B
Method: as §1

[9] = test system: Serratia marcescens GN10857; experiment: minimum inhibitory concentration (MIC); conditions: Tables 2A, 2B
Method: as §1

[10] = test system: Staphylococcus aureus IAA498; experiment: minimum inhibitory concentration (MIC); conditions: Tables 2A, 2B
Method: as §1

[11] = test system: Pseudomonas cepacia OF189; experiment: minimum inhibitory concentration (MIC); conditions: Burkholderia cepacia, Tables 2A, 2B
Method: as §1

[12] = test system: Pseudomonas maltophilia OF247; experiment: minimum inhibitory concentration (MIC); conditions: Stenotrophomonas maltophilia, Tables 2A, 2B
Method: as §1

[13] = Citrobacter freundii GN7391, Tables 2A, 2B, read-out: MIC
[14] = Enterobacter cloacae 908RN, Tables 2A, 2B, read-out: MIC
[15] = Enterobacter cloacae GN7471, Tables 2A, 2B, read-out: MIC
[16] = Escherichia coli ML4704, Tables 2A, 2B, read-out: MIC
[17] = Proteus vulgris GN7919, Tables 2A, 2B, read-out: MIC
[18] = Enterobacter cloacae 908RN, Tables 2A, 2B

SMILES | MIC [1] | MIC [2, 13] | MIC [3, 14] | MIC [4, 15] | MIC (Escherichia coli GN5482) | MIC (Escherichia coli ML4704; [16]) | MIC [5] | MIC (Proteus vulgris GN7919; [17]) | MIC [6] | MIC [7] | MIC [8] | MIC [9] | MIC [10] | MIC [3, 18] | MIC [11] | MIC [12] | also measured
CON=C(C(=O)NC1C(=O)N2C(C(=O)O)=C(CSc3cc(C)nc4nc(CO)nn34)CSC12)c1csc(N)n1 (stereo not drawn) [Example 17, 7-[2-(2-amino-1,3-thiazol-4-yl)-2-(methoxyimino)acetamido]-3-[(2-hydroxymethyl-5-methyl-s-triazolo[1,5-a]pyrimidin-7-yl)thiomethyl]-3-cephem-4-carboxylic acid.hydrochloride] | 0.39 µg/mL | 50 µg/mL | 50 µg/mL | 3.13 µg/mL | 0.1 µg/mL | 0.025 µg/mL | 0.39 µg/mL | 25 µg/mL | 100 µg/mL | 100 µg/mL | 100 µg/mL | 12.5 µg/mL | 12.5 µg/mL | – | – | – | –
Cc1cc(SCC2=C(C(=O)O)N3C(=O)C(NC(=O)C(=NOC(C)(C)C(=O)O)c4csc(N)n4)[C@H]3SC2)n2nc(CO)nc2n1 (stereo partly drawn) [Example 20, 7-[2-(2-amino-1,3-thiazol-4-yl)-2-(1-carboxy-1-methylethoxyimino)acetamido]-3-[(2-hydroxymethyl-5-methyl-s-triazolo[1,5-a]pyrimidin-7-yl)thiomethyl]-3-cephem-4-carboxylic acid] | 3.13 µg/mL (≈ 4.72 µM) | > 100 µg/mL | – | 6.25 µg/mL (≈ 9.42 µM) | 0.78 µg/mL (≈ 1.18 µM) | 0.39 µg/mL (≈ 0.588 µM) | 0.78 µg/mL (≈ 1.18 µM) | 3.13 µg/mL (≈ 4.72 µM) | 12.5 µg/mL (≈ 18.8 µM) | 6.25 µg/mL (≈ 9.42 µM) | 12.5 µg/mL (≈ 18.8 µM) | 12.5 µg/mL (≈ 18.8 µM) | 6.25 µg/mL (≈ 9.42 µM) | 100 µg/mL (≈ 151 µM) | – | – | –
COCc1nc2nc(C)cc(SCC3=C(C(=O)O)N4C(=O)C(NC(=O)C(=NOC(C)(C)C(=O)NNC(=O)c5ccc(O)c(O)c5)c5csc(N)n5)C4SC3)n2n1 (stereo not drawn) [Example 24, 7-{2-[2-amino-1,3-thiazol-4-yl]-2-[1-(3-(3,4-dihydroxybenzoyl)carbazoyl)-1-methylethoxyimino]acetamido}-3-[(2-methoxymethyl-5-methyl-s-triazolo[1,5-a]-pyrimidin-7-yl)thiomethyl]-3-cephem-4-carboxylic acid.hydrochlride] | 3.13 µg/mL (≈ 3.78 µM) | 12.5 µg/mL (≈ 15.1 µM) | 6.25 µg/mL (≈ 7.55 µM) | 3.13 µg/mL (≈ 3.78 µM) | 0.025 µg/mL (≈ 0.0302 µM) | 0.025 µg/mL (≈ 0.0302 µM) | 0.025 µg/mL (≈ 0.0302 µM) | 1.56 µg/mL (≈ 1.88 µM) | 0.2 µg/mL (≈ 0.242 µM) | 0.05 µg/mL (≈ 0.0604 µM) | 0.05 µg/mL (≈ 0.0604 µM) | 0.39 µg/mL (≈ 0.471 µM) | 6.25 µg/mL (≈ 7.55 µM) | – | – | – | –
COCc1nc2nc(C)cc(SCC3=C(C(=O)O)N4C(=O)C(NC(=O)C(=NOC)c5csc(N)n5)C4SC3)n2n1 (stereo not drawn) [Example 26] | 0.78 µg/mL (≈ 1.29 µM) | 50 µg/mL (≈ 82.6 µM) | 50 µg/mL (≈ 82.6 µM) | 6.25 µg/mL (≈ 10.3 µM) | 0.39 µg/mL (≈ 0.644 µM) | 0.05 µg/mL (≈ 0.0826 µM) | 1.56 µg/mL (≈ 2.58 µM) | 25 µg/mL (≈ 41.3 µM) | > 100 µg/mL | 100 µg/mL (≈ 165 µM) | 100 µg/mL (≈ 165 µM) | 25 µg/mL (≈ 41.3 µM) | 25 µg/mL (≈ 41.3 µM) | – | – | – | –
CC(C)(ON=C(C(=O)NC1C(=O)N2C(C(=O)O)=C(CSc3cc(C(=O)O)nc4nc(CO)nn34)CSC12)c1csc(N)n1)C(=O)NNC(=O)c1ccc(O)c(O)c1 (stereo not drawn) [Example 30, 7-{2-[2-amino-1,3-thiazol-4-yl]-2-[1-(3-(3,4-dihydroxybenzoyl)carbazoyl)-1-methylethoxyimino]acetamido}-3-[(5-carboxy-2-hydroxymethyl-s-triazolo[1,5-a]-pyrimidin-7-yl)thiomethyl]-3-cephem-4-carboxylic acid.hydrochlride] | 12.5 µg/mL (≈ 14.8 µM) | 1.56 µg/mL (≈ 1.85 µM) | 1.56 µg/mL (≈ 1.85 µM) | 0.78 µg/mL (≈ 0.924 µM) | 0.05 µg/mL (≈ 0.0593 µM) | 0.025 µg/mL (≈ 0.0296 µM) | 0.025 µg/mL (≈ 0.0296 µM) | 3.13 µg/mL (≈ 3.71 µM) | 0.2 µg/mL (≈ 0.237 µM) | 0.1 µg/mL (≈ 0.119 µM) | 0.025 µg/mL (≈ 0.0296 µM) | 0.78 µg/mL (≈ 0.924 µM) | 25 µg/mL (≈ 29.6 µM) | – | – | – | –
CON=C(C(=O)NC1C(=O)N2C(C(=O)O)=C(CSc3cc(C(=O)O)nc4nc(CO)nn34)CSC12)c1csc(N)n1 (stereo not drawn) [Example 31] | 6.25 µg/mL (≈ 10.1 µM) | 100 µg/mL (≈ 161 µM) | – | 6.25 µg/mL (≈ 10.1 µM) | 0.2 µg/mL (≈ 0.322 µM) | 0.1 µg/mL (≈ 0.161 µM) | 0.2 µg/mL (≈ 0.322 µM) | 50 µg/mL (≈ 80.4 µM) | > 100 µg/mL | > 100 µg/mL | 100 µg/mL (≈ 161 µM) | 25 µg/mL (≈ 40.2 µM) | 12.5 µg/mL (≈ 20.1 µM) | 100 µg/mL (≈ 161 µM) | – | – | –
Cc1nc2nc(CO)cc(SCC3=C(C(=O)[O-])N4C(=O)C(NC(=O)C(=NOC(C)(C)C(=O)NNC(=O)c5ccc(O)c(O)c5)c5csc(N)n5)[C@H]4SC3)n2n1.[Na+] (stereo partly drawn) [Example 37, sodium 7-{2-[2-amino-1,3-thiazol-4-yl]-2-[1-(3-(3,4-dihydroxybenzoyl)carbazoyl)-1-methylethoxyimino]acetamido}-3-[(5-hydroxymethyl-2-methyl-s-triazolo[1,5-a]pyrimidin-7-yl)thiomethyl]-3-cephem-4-carboxylate] | 3.13 µg/mL | – | – | – | 0.05 µg/mL | – | 0.012 µg/mL | – | 0.2 µg/mL | 0.1 µg/mL | 0.1 µg/mL | 0.39 µg/mL | 6.25 µg/mL | – | 0.025 µg/mL | 0.39 µg/mL | MIC ([2]; Citrobacter freundii, GN7391): 6.25 µg/mL; MIC [3]: 1.56 µg/mL; MIC ([4]; Enterobacter cloacae, GN7471): 1.56 µg/mL; MIC (Escherichia coli ML4704; Escherichia coli, ML4704): 0.1 µg/mL; MIC (Proteus vulgris GN7919): 1.56 µg/mL
CON=C(C(=O)NC1C(=O)N2C(C(=O)O)=C(CSc3cc(CO)nc4nc(C)nn34)CSC12)c1csc(N)n1 (stereo not drawn) [Example 38] | 0.78 µg/mL (≈ 1.32 µM) | 25 µg/mL (≈ 42.3 µM) | 50 µg/mL (≈ 84.5 µM) | 3.13 µg/mL (≈ 5.29 µM) | 0.1 µg/mL (≈ 0.169 µM) | 0.05 µg/mL (≈ 0.0845 µM) | 0.78 µg/mL (≈ 1.32 µM) | 6.25 µg/mL (≈ 10.6 µM) | > 100 µg/mL | 100 µg/mL (≈ 169 µM) | 100 µg/mL (≈ 169 µM) | 25 µg/mL (≈ 42.3 µM) | 12.5 µg/mL (≈ 21.1 µM) | – | 25 µg/mL (≈ 42.3 µM) | 50 µg/mL (≈ 84.5 µM) | –
CC(C)(ON=C(C(=O)NC1C(=O)N2C(C(=O)[O-])=C(CSc3cc(CO)nc4nc(CO)nn34)CS[C@H]12)c1csc(N)n1)C(=O)NNC(=O)c1ccc(O)c(O)c1.[Na+] (stereo partly drawn) [Example 42, sodium 7-{2-[2-amino-1,3-thiazol-4-yl]-2[1-(3-(3,4-dihydroxybenzoyl)carbazoyl)-1-methylethoxyimino]acetamido}-3-[(2,5-bis(hydroxymethyl)-s-triazolo[1,5-a]pyrimidin-7 yl)thiomethyl]-3-cephem-4-carboxylate] | 3.13 µg/mL | – | – | – | 0.1 µg/mL | – | 0.2 µg/mL | – | 0.2 µg/mL | 0.1 µg/mL | 0.1 µg/mL | 0.39 µg/mL | 6.25 µg/mL | – | 0.025 µg/mL | 0.78 µg/mL | MIC ([2]; Citrobacter freundii, GN7391): 6.25 µg/mL; MIC [3]: 3.13 µg/mL; MIC ([4]; Enterobacter cloacae, GN7471): 1.56 µg/mL; MIC (Escherichia coli ML4704; Escherichia coli, ML4704): 0.1 µg/mL; MIC (Proteus vulgris GN7919): 3.13 µg/mL
Cc1cc(SCC2=C(C(=O)O)N3C(=O)C(NC(=O)C(=NOC(C)(C)C(=O)NN)c4csc(N)n4)C3SC2)n2nc(CO)nc2n1 (stereo not drawn) [Example 43, 7-[2-(2-amino-1,3-thiazol-4-yl)-2-(1-carbazoyl-1-methylethoxyimino)acetamido]-3-[(2-hydroxymethyl5-methyl-s-triazolo[1,5-a]pyrimidin-7-yl)thiomethyl]-3-cephem-4-carboxylate.dihydrochloride] | 6.25 µg/mL | 100 µg/mL | – | 25 µg/mL | 0.39 µg/mL | 0.2 µg/mL | 3.13 µg/mL | 50 µg/mL | 100 µg/mL | 25 µg/mL | 25 µg/mL | 50 µg/mL | 12.5 µg/mL | > 100 µg/mL | 50 µg/mL | 50 µg/mL | –
